Results published in ChEMBL document CHEMBL1142638, “Thalicosides A1-A3, minor cycloartane bisdesmosides from Thalictrum minus” (2000).

Legend:
Candida albicans = test: Antifungal activity against Candida albicans ATCC 90028 at 1 mg/mL after 24 hrs by spectrophotometry; type: functional
Staphylococcus aureus = test: Antibacterial activity against Staphylococcus aureus ATCC 6538P at 1 mg/mL after 24 hrs by spectrophotometry; type: functional

For `CC(C)=CC[C@H](O)[C@@H](C)[C@H]1[C@@H](O)C[C@@]2(C)[C@@H]3CC[C@H]4[C@](C)(CO[C@@H]5O[C@H](CO)[C@@H](O)[C@H](O)[C@H]5O)[C@@H](O[C@@H]5OC[C@H](O)[C@H](O)[C@H]5O)CC[C@@]45C[C@@]35CC[C@]12C` [THALICOSIDE A2], which Activity (Candida albicans) is on record?
Its Activity is 78.7%.

What about the Activity (Staphylococcus aureus) of the same compound?
The Activity was 45.7%.
